This is an account of results in patent US9914730B2, “Azaquinazoline inhibitors of Atypical protein Kinase C” (Ignyta, Inc., priority 2012, dated 2018).

Some results are limits rather than exact numbers.

For the experiment, the target named is T1, full-length human PKCι (Homo sapiens, UniProt P41743).
T1 construct: Recombinant, full-length human PKCι expressed in Sf21 insect cells is also commercially available; purchased; host or cells: Sf21 insect cells
T1 sequence (P41743 1-596): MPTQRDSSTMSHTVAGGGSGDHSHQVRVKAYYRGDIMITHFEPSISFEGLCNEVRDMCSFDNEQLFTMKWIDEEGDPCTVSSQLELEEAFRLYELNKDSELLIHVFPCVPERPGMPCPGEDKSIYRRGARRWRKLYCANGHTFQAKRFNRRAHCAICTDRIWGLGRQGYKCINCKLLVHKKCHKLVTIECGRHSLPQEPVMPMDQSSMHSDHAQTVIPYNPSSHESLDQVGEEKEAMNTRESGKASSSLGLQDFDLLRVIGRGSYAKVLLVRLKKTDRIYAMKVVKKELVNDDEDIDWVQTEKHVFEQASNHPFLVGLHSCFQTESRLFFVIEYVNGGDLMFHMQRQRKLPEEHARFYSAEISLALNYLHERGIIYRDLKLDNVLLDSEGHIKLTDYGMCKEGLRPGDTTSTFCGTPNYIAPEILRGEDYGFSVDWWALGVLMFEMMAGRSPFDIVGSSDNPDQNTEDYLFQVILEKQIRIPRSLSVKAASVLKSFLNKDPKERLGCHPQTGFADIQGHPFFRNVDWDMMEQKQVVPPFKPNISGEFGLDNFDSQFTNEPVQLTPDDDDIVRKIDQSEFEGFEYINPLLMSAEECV
As to the kind of experiment: PKCι IC50 IMAP assay, full-length PKCι at 150 μM ATP. The class given is biochemical. The conditions noted are these: read-out: IC50 in IMAP assay against full length PKCi at 150 μM ATP. In a few lines: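 Full-length hPKCι (Sf21) ~15 pM; 5FAM-peptide 100 nM; ATP 150 μM (5× KM^APP); tris pH7.5/MgCl2/EGTA/DTT/Triton, 4% DMSO; 60 min RT; IMAP stop, 2 h; FP 485/530 nm; IC50 from % inhibition curves.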
Consider `COc1ccc(-c2nccc3c(NC[C@@H](N)Cc4ccccc4)nc(-c4ccncc4)nc23)cc1` [Example 95, N-[(2S)-2-amino-3-phenylpropyl]-8-(4-methoxy-phenyl)-2-(pyridin-4-yl)-pyrido[3,4-d]-pyrimidin-4-amine], for which the IC50 fell in the range of 100 to 1000 nM.

On to `N[C@H](CNc1nc(-c2ccncc2)nc2c(-c3ccccc3Cl)nccc12)Cc1ccccc1` [Example 96, N-[(2S)-2-amino-3-phenylpropyl]-8-(2-chlorophenyl)-2-(pyridin-4-yl)pyrido[3,4-d]pyrimidin-4-amine], for which the IC50 was in the range of 100 to 1000 nM.

Consider `N[C@H](CNc1nc(-c2ccncc2)nc2c(-c3ccc4occc4c3)nccc12)Cc1ccccc1` [Example 97, N-[(2S)-2-amino-3-phenylpropyl]-8-(1-benzofuran-5-yl)-2-(pyridin-4-yl)-pyrido[3,4-d]-pyrimidin-4-amine], for which the IC50 lay in the range of 100 to 1000 nM.

For `Cn1cc(-c2nccc3c(NC[C@@H](N)Cc4ccccc4)nc(-c4ccncc4)nc23)cn1` [Example 98, N-[(2S)-2-amino-3-phenylpropyl]-8-(1-methyl-1H-pyrazol-4-yl)-2-(pyridin-4-yl)-pyrido[3,4-d]-pyrimidin-4-amine], the IC50 fell in the range of 1000 to 10000 nM.

Take `N[C@H](CNc1nc(-c2ccncc2)nc2c(-c3cccnc3)nccc12)Cc1ccccc1` [Example 99, N-[(2S)-2-amino-3-phenylpropyl]-8-(pyridin-3-yl)-2-(pyridin-4-yl)pyrido[3,4-d]pyrimidin-4-amine]: the IC50 fell in the range of 100 to 1000 nM.

As to `N[C@H](CNc1nc(-c2ccncc2)nc2c(-c3ccncc3)nccc12)Cc1ccccc1` [Example 100, N-[(2S)-2-amino-3-phenylpropyl]-2,8-bis(pyridin-4-yl)pyrido[3,4-d]pyrimidin-4-amine], the concentration for half-maximal inhibition (IC50) lay within 100 to 1000 nM.

For the compound `CC(C)Cn1cc(-c2nccc3c(NC[C@@H](N)Cc4ccccc4)nc(-c4ccncc4)nc23)cn1` [Example 101, N-[(2S)-2-amino-3-phenylpropyl]-8-[1-(2-methyl-propyl)-1H-pyrazol-4-yl]-2-(pyridin-4-yl)-pyrido[3,4-d]-pyrimidin-4-amine], the IC50 fell in the range of 1000 to 10000 nM.

Regarding `N[C@H](CNc1nc(-c2ccncc2)nc2c(-c3cccc(Cl)c3)nccc12)Cc1ccccc1` [Example 102, N-[(2S)-2-amino-3-phenylpropyl]-8-(3-chloro-phenyl)-2-(pyridin-4-yl)-pyrido[3,4-d]-pyrimidin-4-amine], the IC50 was 100 to 1000 nM.

On to `N[C@H](CNc1nc(-c2ccncc2)nc2c(-c3ccc(Cl)cc3)nccc12)Cc1ccccc1` [Example 103, N-[(2S)-2-amino-3-phenylpropyl]-8-(4-chloro-phenyl)-2-(pyridin-4-yl)-pyrido[3,4-d]-pyrimidin-4-amine], for which the IC50 lay in the range of 100 to 1000 nM.

For `Cn1nccc1-c1nccc2c(NC[C@@H](N)Cc3ccccc3)nc(-c3ccncc3)nc12` [Example 104, N-[(2S)-2-amino-3-phenylpropyl]-8-(1-methyl-1H-pyrazol-5-yl)-2-(pyridin-4-yl)-pyrido[3,4-d]-pyrimidin-4-amine], the IC50 was 1000 to 10000 nM.

Regarding `N[C@H](CNc1nc(-c2ccncc2)nc2c(-c3ccccc3O)nccc12)Cc1ccccc1` [Example 105, 2-(4-{[(2S)-2-amino-3-phenylpropyl]-amino}-2-(pyridin-4-yl)-pyrido[3,4-d]-pyrimidin-8-yl)phenol], the IC50 is less than 100 nM.

As for `N[C@H](CNc1nc(-c2ccncc2)nc2c(-c3cccc(-c4cccc(Cl)c4)c3)nccc12)Cc1ccccc1` [Example 106, N-[(2S)-2-amino-3-phenylpropyl]-8-[3-(3-chloro-phenyl)-phenyl]-2-(pyridin-4-yl)pyrido[3,4-d]pyrimidin-4-amine], the IC50 lay in the range of 1000 to 10000 nM.

Turning to `N[C@H](CNc1nc(-c2ccncc2)nc2c(-c3ccc(-c4ccc(Cl)cc4)cc3)nccc12)Cc1ccccc1` [Example 107, N-[(2S)-2-amino-3-phenylpropyl]-8-[4-(4-chloro-phenyl)-phenyl]-2-(pyridin-4-yl)pyrido[3,4-d]pyrimidin-4-amine], the IC50 is 1000 to 10000 nM.

For `N[C@H](CNc1nc(-c2ccncc2)nc2c(-c3cncnc3)nccc12)Cc1ccccc1` [Example 108, N-[(2S)-2-amino-3-phenylpropyl]-2-(pyridin-4-yl)-8-(pyrimidin-5-yl)pyrido[3,4-d]pyrimidin-4-amine], the IC50 lay within 100 to 1000 nM.

With `Nc1cccc(-c2nccc3c(NC[C@@H](N)Cc4ccccc4)nc(-c4ccncc4)nc23)c1` [Example 109, N-[(2S)-2-amino-3-phenylpropyl]-8-(3-aminophenyl)-2-(pyridin-4-yl)pyrido[3,4-d]pyrimidin-4-amine], the IC50 was 100 to 1000 nM.

In the case of `N[C@H](CNc1nc(-c2ccncc2)nc2c(-c3cccc4ccoc34)nccc12)Cc1ccccc1` [Example 110, N-[(2S)-2-amino-3-phenylpropyl]-8-(1-benzofuran-7-yl)-2-(pyridin-4-yl)pyrido[3,4-d]pyrimidin-4-amine], the IC50 lay in the range of 100 to 1000 nM.

Consider `Cc1ccc(-c2nccc3c(NC[C@@H](N)Cc4ccccc4)nc(-c4ccncc4)nc23)s1` [Example 111, N-[(2S)-2-amino-3-phenylpropyl]-8-(5-methyl-thiophen-2-yl)-2-(pyridin-4-yl)pyrido[3,4-d]pyrimidin-4-amine], for which the IC50 fell in the range of 100 to 1000 nM.

Consider `Cc1noc(C)c1-c1nccc2c(NC[C@@H](N)Cc3ccccc3)nc(-c3ccncc3)nc12` [Example 112, N-[(2S)-2-amino-3-phenylpropyl]-8-(dimethyl-1,2-oxazol-4-yl)-2-(pyridin-4-yl)-pyrido[3,4-d]-pyrimidin-4-amine], for which the IC50 was in the range of 10000 to 40000 nM.

In the case of `N[C@H](CNc1nc(-c2ccncc2)nc2c(-c3ccsc3)nccc12)Cc1ccccc1` [Example 114, N-[(2S)-2-amino-3-phenylpropyl]-2-(pyridin-4-yl)-8-(thiophen-3-yl)pyrido[3,4-d]pyrimidin-4-amine], the IC50 fell in the range of 100 to 1000 nM.

On to `N[C@H](CNc1nc(-c2ccncc2)nc2c(-c3ccco3)nccc12)Cc1ccccc1` [Example 115, N-[(2S)-2-amino-3-phenylpropyl]-8-(furan-2-yl)-2-(pyridin-4-yl)pyrido[3,4-d]pyrimidin-4-amine], for which the IC50 was less than 100 nM.

In the case of `N[C@H](CNc1nc(-c2ccncc2)nc2c(-c3ccc4[nH]cnc4c3)nccc12)Cc1ccccc1` [Example 116, N-[(2S)-2-amino-3-phenylpropyl]-8-(1H-1,3-benzodiazol-5-yl)-2-(pyridin-4-yl)pyrido[3,4-d]pyrimidin-4-amine], the IC50 lay in the range of 1000 to 10000 nM.

In the case of `CCOc1cccc(-c2nccc3c(NC[C@@H](N)Cc4ccccc4)nc(-c4ccncc4)nc23)c1` [Example 117, N-[(2S)-2-amino-3-phenylpropyl]-8-(3-ethoxy-phenyl)-2-(pyridin-4-yl)-pyrido[3,4-d]-pyrimidin-4-amine], the IC50 is 1000 to 10000 nM.

As to `Cc1ccccc1-c1nccc2c(NC[C@@H](N)Cc3ccccc3)nc(-c3ccncc3)nc12` [Example 118, N-[(2S)-2-amino-3-phenylpropyl]-8-(2-methyl-phenyl)-2-(pyridin-4-yl)-pyrido[3,4-d]-pyrimidin-4-amine], the IC50 fell in the range of 1000 to 10000 nM.

`Cc1cccc(-c2nccc3c(NC[C@@H](N)Cc4ccccc4)nc(-c4ccncc4)nc23)c1` [Example 119, N-[(2S)-2-amino-3-phenylpropyl]-8-(3-methyl-phenyl)-2-(pyridin-4-yl)-pyrido[3,4-d]-pyrimidin-4-amine]: the IC50 is 1000 to 10000 nM.

As to `N[C@H](CNc1nc(-c2ccncc2)nc2c(-c3cccc(-c4ccn[nH]4)c3)nccc12)Cc1ccccc1` [Example 120, N-[(2S)-2-amino-3-phenylpropyl]-8-[3-(1H-pyrazol-5-yl)phenyl]-2-(pyridin-4-yl)pyrido[3,4-d]pyrimidin-4-amine], the IC50 was 1000 to 10000 nM.

As for `NCc1ccc(-c2nccc3c(NC[C@@H](N)Cc4ccccc4)nc(-c4ccncc4)nc23)o1` [Example 121, N-[(2S)-2-amino-3-phenylpropyl]-8-[5-(amino-methyl)-furan-2-yl]-2-(pyridin-4-yl)pyrido[3,4-d]pyrimidin-4-amine], the IC50 fell in the range of 100 to 1000 nM.

With `N[C@@H](CNc1nc(-c2ccncc2)nc2c(-c3ccccn3)nccc12)Cc1ccccc1` [Example 122, (R)-3-Phenyl-N^1-(2-pyridin-4-yl-8-pyridin-2-yl-pyrido[3,4-d]pyrimidin-4-yl)-propane-1,2-diamine], the IC50 is 100 to 1000 nM.

Take `N[C@@H](CNc1nc(-c2ccncc2)nc2c(Nc3ccccc3)nccc12)Cc1ccccc1` [Example 123, N^4-((R)-2-Amino-3-phenyl-propyl)-N^8-phenyl-2-pyridin-4-yl-pyrido[3,4-d]pyrimidine-4,8-diamine]: the IC50 lay in the range of 1000 to 10000 nM.

For the compound `N[C@H](CNc1nc(-c2ccncc2)nc2c(Nc3ncccn3)nccc12)Cc1ccccc1` [Example 124, 4-N-[(2S)-2-amino-3-phenylpropyl]-2-(pyridin-4-yl)-8-N-(pyrimidin-2-yl)pyrido[3,4-d]pyrimidine-4,8-diamine], the IC50 fell in the range of 1000 to 10000 nM.

The IC50 is the midpoint of a concentration-inhibition curve.
